Measured values: the supplement of paper PMC10307832

What was measured:
Experiment in all cases: relative viability (nuclei count vs DMSO), 5 days (fraction); higher = more cells survive
LC-2-ad = test system: LC-2-ad
In short: (§1)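 Nuclei were stained with Hoechst during a one-step fixation (final 0.05% Triton X-100, 1% formaldehyde, 1 ug/ml Hoechst) carried out 5 days after dosing, then counted on 4× images. The cells, lung cancer lines in 1536-well plates, had been dosed by pin tool the day after seeding with one drug alone or a fixed anchor-drug dose plus five library-drug doses (not always all listed) in √10 steps. Relative viability is the nuclei count in treated wells divided by that in vehicle wells, and each value is the median of duplicate plates.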

BEN = test system: BEN
In short: as §1

H3255 = test system: H3255
In short: as §1

A-427 = test system: A-427
In short: as §1

NCI-H1650 = test system: NCI-H1650
In short: as §1

NCI-H520 = test system: NCI-H520
In short: as §1

PC-3 [JPC-3] = test system: PC-3 [JPC-3]
In short: as §1

NCI-H441 = test system: NCI-H441
In short: as §1

NCI-H650 = test system: NCI-H650
In short: as §1

NCI-H460 = test system: NCI-H460
In short: as §1

ABC-1 = test system: ABC-1
In short: as §1

NCI-H2087 = test system: NCI-H2087
In short: as §1

LCLC-97TM1 = test system: LCLC-97TM1
In short: as §1

NCI-H2023 = test system: NCI-H2023
In short: as §1

NCI-H1944 = test system: NCI-H1944
In short: as §1

NCI-H596 = test system: NCI-H596
In short: as §1

NCI-H1651 = test system: NCI-H1651
In short: as §1

201T = test system: 201T
In short: as §1

NCI-H661 = test system: NCI-H661
In short: as §1

NCI-H1915 = test system: NCI-H1915
In short: as §1

NCI-H727 = test system: NCI-H727
In short: as §1

Compound `Cc1sc2c(c1C)C(c1ccc(Cl)cc1)=N[C@@H](CC(=O)OC(C)(C)C)c1nnc(C)n1-2` [JQ1] + Nc1ncn([C@H]2C[C@H](O)[C@@H](CO)O2)c(=O)n1 [Decitabine] (partner 2 µM) has a relative viability (LC-2-ad; first compound 0.04 µM) of 0.754, a relative viability (LC-2-ad; first compound 0.1265 µM) of 0.621 and a relative viability (LC-2-ad; first compound 0.4 µM) of 0.708. The relative viability (LC-2-ad; first compound 1.265 µM) was 0.574, the relative viability (LC-2-ad; first compound 4 µM) was 0.3 and the relative viability (BEN; first compound 0.04 µM) was 0.712. The relative viability (BEN; first compound 0.1265 µM) was 0.578, the relative viability (BEN; first compound 0.4 µM) was 0.63 and the relative viability (BEN; first compound 1.265 µM) was 0.511. The relative viability (BEN; first compound 4 µM) was 0.38, the relative viability (H3255; first compound 0.04 µM) was 0.562 and the relative viability (H3255; first compound 0.4 µM) was 0.539. For the same compound, the relative viability (H3255; first compound 1.265 µM) was 0.305, the relative viability (H3255; first compound 4 µM) was 0.249 and the relative viability (A-427; first compound 0.04 µM) was 0.57. It also gave a relative viability (A-427; first compound 0.1265 µM) of 0.506, a relative viability (A-427; first compound 0.4 µM) of 0.591 and a relative viability (A-427; first compound 1.265 µM) of 0.495. For the same compound, the relative viability (A-427; first compound 4 µM) was 0.478, the relative viability (NCI-H1650; first compound 0.04 µM) was 0.442 and the relative viability (NCI-H1650; first compound 0.1265 µM) was 0.44. It also gave a relative viability (NCI-H1650; first compound 0.4 µM) of 0.333, a relative viability (NCI-H1650; first compound 1.265 µM) of 0.185 and a relative viability (NCI-H1650; first compound 4 µM) of 0.146. The relative viability (NCI-H520; first compound 0.04 µM) was 0.52, the relative viability (NCI-H520; first compound 0.1265 µM) was 0.561 and the relative viability (NCI-H520; first compound 0.4 µM) was 0.443. It also gave a relative viability (NCI-H520; first compound 1.265 µM) of 0.349, a relative viability (NCI-H520; first compound 4 µM) of 0.355 and a relative viability (PC-3 [JPC-3]; first compound 0.04 µM) of 0.864. The relative viability (PC-3 [JPC-3]; first compound 0.1265 µM) was 0.796, the relative viability (PC-3 [JPC-3]; first compound 0.4 µM) was 0.778 and the relative viability (PC-3 [JPC-3]; first compound 1.265 µM) was 0.509. The relative viability (PC-3 [JPC-3]; first compound 4 µM) was 0.561, the relative viability (NCI-H441; first compound 0.04 µM) was 0.257 and the relative viability (NCI-H441; first compound 0.1265 µM) was 0.266. The relative viability (NCI-H441; first compound 0.4 µM) was 0.251, the relative viability (NCI-H441; first compound 1.265 µM) was 0.152 and the relative viability (NCI-H441; first compound 4 µM) was 0.17. The relative viability (NCI-H650; first compound 0.04 µM) was 0.278, the relative viability (NCI-H650; first compound 0.1265 µM) was 0.305 and the relative viability (NCI-H650; first compound 0.4 µM) was 0.316. The relative viability (NCI-H650; first compound 1.265 µM) was 0.251, the relative viability (NCI-H650; first compound 4 µM) was 0.249 and the relative viability (NCI-H460; first compound 0.04 µM) was 0.488. The relative viability (NCI-H460; first compound 0.1265 µM) was 0.344, the relative viability (NCI-H460; first compound 0.4 µM) was 0.296 and the relative viability (NCI-H460; first compound 1.265 µM) was 0.165. The relative viability (NCI-H460; first compound 4 µM) was 0.226, the relative viability (ABC-1; first compound 0.04 µM) was 1.19 and the relative viability (ABC-1; first compound 0.1265 µM) was 0.889. For the same compound, the relative viability (ABC-1; first compound 0.4 µM) was 0.691, the relative viability (ABC-1; first compound 1.265 µM) was 0.837 and the relative viability (ABC-1; first compound 4 µM) was 0.582. The relative viability (NCI-H2087; first compound 0.04 µM) was 0.316, the relative viability (NCI-H2087; first compound 0.1265 µM) was 0.251 and the relative viability (NCI-H2087; first compound 0.4 µM) was 0.262. The relative viability (NCI-H2087; first compound 1.265 µM) was 0.151, the relative viability (NCI-H2087; first compound 4 µM) was 0.18 and the relative viability (LCLC-97TM1; first compound 0.04 µM) was 0.231. The relative viability (LCLC-97TM1; first compound 0.1265 µM) was 0.223, the relative viability (LCLC-97TM1; first compound 0.4 µM) was 0.188 and the relative viability (LCLC-97TM1; first compound 1.265 µM) was 0.156. The relative viability (LCLC-97TM1; first compound 4 µM) was 0.125, the relative viability (NCI-H2023; first compound 0.04 µM) was 0.233 and the relative viability (NCI-H2023; first compound 0.1265 µM) was 0.228. For the same compound, the relative viability (NCI-H2023; first compound 0.4 µM) was 0.198, the relative viability (NCI-H2023; first compound 1.265 µM) was 0.14 and the relative viability (NCI-H2023; first compound 4 µM) was 0.13. It also gave a relative viability (NCI-H1944; first compound 0.04 µM) of 0.438, a relative viability (NCI-H1944; first compound 0.1265 µM) of 0.405 and a relative viability (NCI-H1944; first compound 0.4 µM) of 0.409. For the same compound, the relative viability (NCI-H1944; first compound 1.265 µM) was 0.335, the relative viability (NCI-H1944; first compound 4 µM) was 0.313 and the relative viability (NCI-H596; first compound 0.04 µM) was 1.04. The relative viability (NCI-H596; first compound 0.1265 µM) was 0.978, the relative viability (NCI-H596; first compound 0.4 µM) was 0.679 and the relative viability (NCI-H596; first compound 1.265 µM) was 0.611. It also gave a relative viability (NCI-H596; first compound 4 µM) of 0.62, a relative viability (NCI-H1651; first compound 0.04 µM) of 0.651 and a relative viability (NCI-H1651; first compound 0.1265 µM) of 0.487. It also gave a relative viability (NCI-H1651; first compound 0.4 µM) of 0.442, a relative viability (NCI-H1651; first compound 1.265 µM) of 0.524 and a relative viability (NCI-H1651; first compound 4 µM) of 0.411. The relative viability (201T; first compound 0.04 µM) was 0.88, the relative viability (201T; first compound 0.4 µM) was 0.694 and the relative viability (201T; first compound 1.265 µM) was 0.527. It also gave a relative viability (201T; first compound 4 µM) of 0.453, a relative viability (NCI-H661; first compound 0.04 µM) of 0.505 and a relative viability (NCI-H661; first compound 0.1265 µM) of 0.47. The relative viability (NCI-H661; first compound 0.4 µM) was 0.527, the relative viability (NCI-H661; first compound 1.265 µM) was 0.475 and the relative viability (NCI-H661; first compound 4 µM) was 0.492. The relative viability (NCI-H1915; first compound 0.04 µM) was 0.279, the relative viability (NCI-H1915; first compound 0.4 µM) was 0.255 and the relative viability (NCI-H1915; first compound 1.265 µM) was 0.246. It also gave a relative viability (NCI-H1915; first compound 4 µM) of 0.248, a relative viability (NCI-H727; first compound 0.04 µM) of 1 and a relative viability (NCI-H727; first compound 0.1265 µM) of 0.877. It also gave a relative viability (NCI-H727; first compound 0.4 µM) of 0.506, a relative viability (NCI-H727; first compound 1.265 µM) of 0.597 and a relative viability (NCI-H727; first compound 4 µM) of 0.649.
